Experiment: mn = molality of the nth substance listed, in mol/kg
Conditions: Liquid; for viscosity: Falling or rolling sphere viscometry; for mass density: Vibrating tube method

O=S1(=O)CCCC1 [sulfolane] + O=C=O
Conditions | mass density [kg/m3] | viscosity [mPa·s]
303.15 K, 118.4 kPa, m2 = 0.103 | 1260 | 9.99
303.15 K, 191.2 kPa, m2 = 0.174 | 1259 | 9.8
303.15 K, 316.5 kPa, m2 = 0.284 | 1258 | 9.36
303.15 K, 495.3 kPa, m2 = 0.438 | 1256 | 8.97
303.15 K, 648.5 kPa, m2 = 0.598 | 1255 | 8.34
303.15 K, 777.7 kPa, m2 = 0.709 | 1254 | 7.85
303.15 K, 1063.8 kPa, m2 = 1.001 | 1253 | 7
303.15 K, 1253.8 kPa, m2 = 1.205 | 1252 | 6.48
303.15 K, 1447.1 kPa, m2 = 1.423 | 1252 | 5.96
313.15 K, 121.8 kPa, m2 = 0.0954 | 1252 | 7.98
313.15 K, 200.8 kPa, m2 = 0.1579 | 1250 | 7.73
313.15 K, 324.9 kPa, m2 = 0.2571 | 1249 | 7.61
313.15 K, 526 kPa, m2 = 0.4296 | 1247 | 7.13
313.15 K, 732.9 kPa, m2 = 0.5763 | 1246 | 6.88
313.15 K, 855.1 kPa, m2 = 0.6803 | 1245 | 6.36
313.15 K, 1169.6 kPa, m2 = 0.9594 | 1243 | 5.81
313.15 K, 1383.5 kPa, m2 = 1.159 | 1243 | 5.28
313.15 K, 1644.1 kPa, m2 = 1.385 | 1242 | 4.99
323.15 K, 141.1 kPa, m2 = 0.093 | 1242 | 6.21
323.15 K, 238.4 kPa, m2 = 0.163 | 1241 | 6.1
323.15 K, 392.8 kPa, m2 = 0.266 | 1239 | 5.97
323.15 K, 632 kPa, m2 = 0.417 | 1237 | 5.69
323.15 K, 817.7 kPa, m2 = 0.557 | 1235 | 5.46
323.15 K, 993.9 kPa, m2 = 0.692 | 1234 | 5.16
323.15 K, 1413.4 kPa, m2 = 1.019 | 1232 | 4.68
323.15 K, 1706.6 kPa, m2 = 1.217 | 1231 | 4.28
323.15 K, 2006.9 kPa, m2 = 1.472 | 1231 | 3.98
333.15 K, 153.2 kPa, m2 = 0.091 | 1233 | 5.14
333.15 K, 263.6 kPa, m2 = 0.158 | 1232 | 5.09
333.15 K, 436.2 kPa, m2 = 0.257 | 1229 | 4.92
333.15 K, 694.6 kPa, m2 = 0.415 | 1226 | 4.5
333.15 K, 896.4 kPa, m2 = 0.54 | 1224 | 4.4
333.15 K, 1035.8 kPa, m2 = 0.626 | 1223 | 4.27
333.15 K, 1456.6 kPa, m2 = 0.886 | 1220 | 3.87
333.15 K, 1761.6 kPa, m2 = 1.061 | 1218 | 3.69
343.15 K, 168.2 kPa, m2 = 0.087 | 1223 | 4.19
343.15 K, 296.7 kPa, m2 = 0.155 | 1222 | 4.06
343.15 K, 477.6 kPa, m2 = 0.249 | 1219 | 4
343.15 K, 758.5 kPa, m2 = 0.402 | 1216 | 3.61
343.15 K, 978.6 kPa, m2 = 0.526 | 1213 | 3.63
343.15 K, 1118.9 kPa, m2 = 0.603 | 1211 | 3.46
343.15 K, 1538.6 kPa, m2 = 0.853 | 1207 | 3.24
343.15 K, 1852.6 kPa, m2 = 1.011 | 1205 | 3.02
343.15 K, 2326.1 kPa, m2 = 1.305 | 1203 | 2.92
353.15 K, 178.9 kPa, m2 = 0.08 | 1215 | 3.5
353.15 K, 305 kPa, m2 = 0.137 | 1212 | 3.27
353.15 K, 509.4 kPa, m2 = 0.232 | 1209 | 3.14
353.15 K, 828 kPa, m2 = 0.38 | 1205 | 3.16
353.15 K, 1248.9 kPa, m2 = 0.581 | 1199 | 3
353.15 K, 1720.3 kPa, m2 = 0.822 | 1194 | 2.78
353.15 K, 1911.1 kPa, m2 = 0.924 | 1192 | 2.62
363.15 K, 188.8 kPa, m2 = 0.076 | 1205 | 2.84
363.15 K, 327.8 kPa, m2 = 0.133 | 1203 | 2.74
363.15 K, 555 kPa, m2 = 0.225 | 1199 | 2.64
363.15 K, 902.8 kPa, m2 = 0.366 | 1194 | 2.49
363.15 K, 1404.2 kPa, m2 = 0.573 | 1189 | 2.39
363.15 K, 2015 kPa, m2 = 0.822 | 1185 | 2.24
